3 molecules from patent publication US10023615B2, “Efficient transport into white blood cells” (priority 2008, dated 2018) can be followed below.

The subject of series [1] is Kupffer cells (CD-14 positive cells) of the liver. Nature of the series: Liver cell localization of FITC-D-TAT after i.v. injection. It is filed as in vivo, mouse. Conditions: 0.1 mg/kg i.v. The protocol: FIG. 5: (A): Primary cultured macrophages were incubated with XG-102 (SEQ ID NO: 233) and extensively washed. […] (B): Mice were injected i.v. with 0.1 mg/kg FITC-D-TAT (SEQ ID NO: 4 plus FITC) and were sacrificed 24 hours later with PAF perfusion through the heart. Slices were obtained after cryoprotection using cryostat.
Mice were injected i.v. with 0.1 mg/kg of FITC-D-TAT (SEQ ID NO: 4) and were sacrificed by perfusion 24 h later. Liver was removed, cryoprotected and cut into slices with a cryostat. D-TAT was directly visualized via FITC fluorescence and cell nuclei were labeled with Hoechst dye. Hepatocytes are big cells (89% of liver cells) that display a large nucleus, whereas Kupffer cells (resident macrophages of the liver) represent approximately 10% of the cells and are small and thin, elongated cells with small nucleus.

Another series deals with liver and lymph nodes. The series is described as follows: FITC-XG-102 and FITC-D-TAT localization in liver and lymph nodes. It is filed as in vivo, Sprague Dawley rat. Conditions: 1 mg/kg i.v., 6 h post-injection.
Source text: FIG. 22A and FIG. 22B: 22A: FITC-XG-102 (SEQ ID NO: 233) localization in the liver. Three cellular fields of FITC-XG-102-labelled cells isolated from liver. From left to right, FITC-labelled XG-102, corresponding DAPI nuclear stain and merge of both images. […] Typicall Kupfer cell shape and nucleus can be differentiated from hepatocytes by their shape. Small and triangle in Kupfer cells in contrast to big exagonal, well organized hepatocytes. Obj 63; bar, 20 μm. 22B: FITC-D-TAT (SEQ ID NO: 4) localization in the liver. Two cellular fields of FITC-D-TAT-labelled cells isolated from liver. From left to right, FITC-labelled XG-102, corresponding DAPI nuclear stain and merge of both images. […] Typicall Kupfer cell shape and nucleus can be differentiated from hepatocytes by their shape. Small and triangle in Kupfer cells in contrast to big exagonal, well organized hepatocytes. Obj 63; bar, 20 μm.
(§1) FIG. 23A and FIG. 23B: 23A: FITC-XG-102 (SEQ ID NO: 233) localization in lymph nodes. Cellular field of FITC-XG-102-labelled cells isolated from lymph nodes. Upper panels from left to right: the composite image is organized with one cellular field stained with FITC-XG-102 (left), Dapi for nuclear stain (middle) and the corresponding merged image (right). In the lower panels, a zoomed cell cluster of each image is illustrated. […] The absence of FITC staining in the lymphoid follicles allows distinguishing from the medullary corde and cortex area. Medullary zone seems to have incorporated the FITC-XG-102, composed in majority by macrophages. Obj 10; bar, 50 μm.
as §1, with “23B:” for “FIG. 23A and FIG. 23B:”, “FITC-D-TAT” for “23A: FITC-XG-102”, “4)” for “233)”, “FITC-D-TAT-labelled” for “FITC-XG-102-labelled”, “FITC-D-TAT” for “FITC-XG-102”, “FITC-D-TAT,” for “FITC-XG-102,”
Female Sprague Dawley rat was injected i.v. in the tail with either 1 mg/kg of FITC-XG102 (SEQ ID NO:233) or 1 mg/kg FITC-D-TAT (SEQ ID NO:4). Rats were sacrified 6 h post-injection using a lethal dose of sodium pentobarbital (150 mg/kg i.p.). For histological analysis and during narcosis, rats were perfused through the heart with 4% paraformaldehyde (PFA) in PBS. Organs (liver and lymph nodes) were cryoprotected in sucrose (30% in PBS), frozen using liquid isopentane and kept for further cryostat sectioning. Sections of 14 μm were incubated for 5 min in PBS before Hoechst staining for 2 min at RT (1 μg/ml). […]

The test system of another series is U937 lymphoma cells. The series is described as follows: Uptake (internalization) of FITC-labeled TAT derived transporter constructs in U937 cells, fluorescence plate reader. The class given is cell-based. Conditions: 10 μM, U937, Lymphoma, 24 h.
Another series deals with U937 cells. The series is described as follows: Intracellular concentration of transporter constructs subsequent to uptake into U937 cells. It is filed as cell-based. Conditions: U937 cells, 10 μM construct. The protocol:
9. Determination of Intracellular Concentration of Specific Transporter Constructs Subsequent to Uptake (Internalization) of these Peptides into U937 Cells • According to a further experiment, the concentration of specific transporter constructs subsequent to uptake (internalization) of these peptides into U937 cells were determined.

The subject of series [2] is HL-60 cell line (Leukemia). The series is described as follows: Time dependant internalization of FITC-labeled TAT derived transporter constructs into HL-60 cells. It is filed as cell-based. Conditions: 10 μM; 30 min, 1, 6 or 24 hours. The protocol:
FIG. 3: depicts the results of the time dependant internalization (uptake) of FITC-labeled TAT derived transporter constructs into cells of the HL-60 cell line. […] HL-60 cells were incubated 30 min, 1, 6 or 24 hours with […] of the TAT-derivative transporters. The cells were then washed twice with an acidic buffer (0.2 M Glycin, 0.15 M NaCl, pH 3.0) and twice with PBS. Cells were broken by the addition of RIPA lysis buffer. The relative amount of internalized peptide was then determined by reading the fluorescence intensity (Fusion Alpha plate reader; PerkinElmer) of each extract followed by background substraction and protein content normalization. […]

In series [3] the test system is dissociated cortical primary neurons. The series is described as follows: Confocal microscopy of FITC-labeled TAT derivative transporters in cortical primary neurons. It is filed as cell-based, rat. The conditions noted are these: 500 nM, 24 hours. The protocol: 8.4 Internalization Experiments and Analysis • The time dependant internalization (uptake) of FITC-labeled TAT derived transporter constructs into cells of the HL-60 cell line was carried out with materials and methods as described above. • Briefly, HL-60 cells were incubated 30 min, 1, 6 or 24 hours with 10 μM of the TAT-derivative transporters. The cells were then washed twice with an acidic buffer (0.2 M Glycin, 0.15 M NaCl, pH 3.0) and twice with PBS. Cells were broken by the addition of RIPA lysis buffer. The relative amount of internalized peptide was then determined by reading the fluorescence intensity (Fusion Alpha plate reader; PerkinElmer) of each extract followed by background substraction and protein content normalization. […] The dissociated cortical primary neurons from P2 Sprague Dawley rats were cultured 12 days in neurobasal medium before exposure 24 hours to 500 nM of the FITC-labeled • TAT derivative transporters. The cells were washed five times with PBS on ice and then mounted in fluorsave mounting medium without prior fixation. Acquisitions were performed on LSM510 metaconfocal microscope (Zeiss). Images were processed with LSM510 software and mounted using Adobe photoshop. Visualization by confocal microscopy of labeling with 500 nM FITC-transporters (A: green). Nuclei were stained by Hoechst (B: blue).

The next series relates to Monocytes (CD14). The series is described as follows: Flow cytometry of FITC-transporter content in primary human white blood cells: monocytes. It is filed as cell-based. Conditions: 1 uM, 30 min. From the text:
(§2) Primary human white blood cells (WBC) were obtained from whole blood after red blood cell lysis. […] Cells containing D-TAT-FITC and r3-L-TAT-FITC were finally analysed by flow cytometry to measure their respective transporter content.

The next series relates to Neutrophils (CD15). Nature of the series: Flow cytometry of FITC-transporter content in primary human white blood cells: neutrophils. It is filed as cell-based. Conditions: 1 uM, 30 min.
Source text: as §2
(In general: Flow cytometry measures light scatter and fluorescence of single cells or particles in a stream.)

A further series relates to Lymphocytes T (CD3). The series is described as follows: Flow cytometry of FITC-transporter content in primary human white blood cells: lymphocytes T. It is filed as cell-based. Conditions: 1 uM, 30 min.
Source text: as §2

For another series, the system named is Lymphocytes B (CD19). Nature of the series: Flow cytometry of FITC-transporter content in primary human white blood cells: lymphocytes B. The class given is cell-based. The conditions noted are these: 1 uM, 30 min.
Source text: as §2

Square brackets hold non-standard residues; d marks the D form. Ends that are not written are not given here.

Protocol for U937 lymphoma cells: Cells were plated into poly-DL-lysine coated dishes at a concentration of 1×10^6 cells/ml. Plates were then incubated for 24 h at 37° C., 5% CO2, and 100% relative humidity prior to the addition of a known concentration of peptide. After peptide addition, the cells were incubated 30 min, 1, 6 or 24 h at 37° C., 5% CO2, and 100% relative humidity. Cells were then washed twice with an acidic buffer (Glycin 0.2 M, NaCl 0.15 M, pH 3.0) in order to remove the cell-surface adsorbed peptide (see Kameyama et al., (2007), Biopolymers, 88, 98-107). […] The cell wash using an acidic buffer was thus employed to remove the cell-surface adsorbed peptides. […] Cells were broken by the addition of the RIPA lysis buffer. The relative amount of internalized peptide was then determined by fluorescence after background substraction and protein content normalization. • The steps are thus: 1. […] Analysis of peptide internalization with a fluorescence plate reader • f) Cell Culture and Peptide Treatment • (1) The 6 well culture plates are coated with 3 ml of Poly-D-Lys (Sigma P9011; 25 μg/ml in PBS), the 24 well plates with 600 μl and the 96 well plates with 125 μl and incubated for 4 h at 37° C., CO2 5% and 100% relative humidity. • (2) After 4 hours the dishes were washed twice with 3.5 ml PBS, 700 μl or 150 μl PBS for the 6, 24 or 96 well plates, respectively. • (3) The cells were plated into the dishes in 2.4 ml medium (RPMI) at plating densities of 1′000′000 cells/ml for suspension cells. After inoculation, the plates were incubated at 37° C., 5% CO2 and 100% relative humidity for 24 hours prior to the addition of the peptide. Adherent cells should be at a density of 90-95% the day of treatment and were plated in DMEM :
• (4) The cells were treated with the desired concentration of FITC labeled peptide (stock solution at a concentration of 10 mM in H2O). • (5) Following peptide addition, the cells were incubated 0 to 24 hours (e.g. 30 min, 1, 6 or 24 hours) at 37° C., CO2 5% and 100% relative humidity. • Acidic Wash and Cellular Extracts: • (6) The extracts were cooled on ice. • Suspension cells (or cells, which don attach well to the dish): • Transfer the cells in ? […] To recover the maximum of cells, wash the dish with 1 ml of PBS. • Harvest the cells 2 min at 2400 rpm max. • Suspend the cells in 1 ml cold PBS. • Transfer the cells into a coated “Eppendorf tube” (coated with 1 ml of poly D-Lys for 4 hours and washed twice with 1 ml PBS). • Wash three times with 1 ml of cold acidic wash buffer and centrifuge 2 min at 2400 rpm max. Beware of the spreading of the cells in the “eppendorf”. • Wash twice with 1 ml cold PBS to neutralize. • Add 50 μl of lysis RIPA Buffer. • Incubate 30 min-1 h on ice with agitation. • Adherent Cells: • Wash three times with 3 ml, 1 ml or 200 μl (for 6, 24 or 96 well plates, respectively) of cold acidic wash buffer. Beware of the cells who detach from the dish. • Wash twice with 1 ml cold PBS (for 6, 24 or 96 well plates, respectively) to neutralize. • Add 50 μl of lysis RIPA buffer. • Incubate 30 min-1 h on ice with agitation. • Scrap the cells with a cold scrapper. The 24 and 96 well plates were directly centrifuged at 4000 rpm at 4° for 15 min to remove the cellular debris. Then the supernatants (100 or 50 ml respectively for the 24 or 96 well plates) were directly transferred in a dark 96 well plated.

On to `N=C(N)NCCC[C@@H](NC(=O)[C@@H](CCCCN)NC(=O)[C@@H](CCCCN)NC(=O)[C@@H](CCCNC(=N)N)NC(=O)[C@@H](CCCNC(=N)N)NC(=O)[C@@H](CCC(N)=O)NC(=O)[C@@H](CCCNC(=N)N)NC(=O)[C@@H](CCCNC(=N)N)NC(=O)[C@@H](CCCNC(=N)N)NC(=O)CCNC(=S)Nc1ccc2c(c1)C(=O)OC21c2ccc(O)cc2Oc2cc(O)ccc21)C(N)=O` [FITC-D-TAT, FITC-βA-rrrqrrkkr], for which the “cell type of accumulation in liver” value in [1] (24 h) is reported as “accumulates predominantly in Kupffer cells”. In addition, the “colocalization with CD-14 positive cells in liver” value in [1] (24 hours) is “colocalization between FITC-D-TAT labelled-cells and CD-14 positive cells”. Further, in the series with liver and lymph nodes, the “localization in lymph nodes” value was “decorates subcapsular sinus macrophages and constitutive migrating alveolar macrophages”; the “localization in the liver” value is recorded as “efficiently decorates Kupfer cells in contrast to hepatocytes which only show a background staining level”.

Take “rKKRrQRRr ([dR]KKR[dR]QRR[dR]) [r3-L-TAT]”: the “uptake (internalization)” value with U937 lymphoma cells is “most efficient”. Besides, the “intracellular concentration of transporter construct subsequent to uptake” value with U937 cells (2 h) was determined as 2.34; in the series with U937 cells (4 h), 3.16; in the series with U937 cells (6 h), 3.56; with U937 cells (24 h), 11.2. For the same molecule, the “time dependant internalization (uptake)” value in series [2] is reported as “as effective as the D-TAT transporter construct”. Moreover, the “internalization seen by confocal microscopy” value in series [3] is listed as “internalized into the cytoplasm of the non stressed neurons”. Besides, the “binding to cell population” value with Monocytes (CD14) is “binds to monocytes, neutrophils and lymphocyte T cells”; in the series on Neutrophils (CD15), “binds to monocytes, neutrophils and lymphocyte T cells”; with Lymphocytes T (CD3), “binds to monocytes, neutrophils and lymphocyte T cells”; in the series on Lymphocytes B (CD19), “less efficiently to lymphocyte B cells”.

Take rRRQrRKKr [r3-L-TATi]: in the series on U937 lymphoma cells, the “uptake (internalization)” value was “most efficient”. Further, the “time dependant internalization (uptake)” value in series [2] is on record as “less efficient but still suitable”. Also, the “internalization seen by confocal microscopy” value in series [3] was “internalized into the cytoplasm of the non stressed neurons”.
